One series relates to NMRI mice. The series can be described thus: Mouse tail suspension test. The format is in vivo. The conditions noted are these: s.c., immobility, 30 min after administration.
Another series concerns C57BL/6 mice. The series can be described thus: Mouse forced swim test. The format is in vivo. The conditions noted are these: s.c., immobility, treatment 30 min prior to test. How it is done:
(§1) Antidepressant- and anxiolytic like properties of the compounds were examined in mouse tail suspension test (TS), mouse forced swim test (FS) and mouse neonatal ultrasonic vocalization test (USV).
This test has been validated as test for antidepressant-like activity (Borsini and Meli, Psychopharmacology 1988, 94, 147).
Adult male C57BL/6 mice (body weight 22-24 g Charles River, Sulzfeld, Germany) were housed individually in IVC racks and maintained under a 12:12 h light/dark cycle (lights on at 6:00 b), with food and water ad libitum.
A clear glass beaker (10 cm in diameter, 25 cm high) was filled to a depth of 10 cm with water (25° C.). Mice were placed into the water for 6 min. Immobility during the first and the last 3 min were scored automatically using the Videotrack video tracking system (Viewpoint, France), which allows detection of individual pixel movements. Four animals were tested in parallel. Treatment was given 30 min prior to test (s.c., 10 ml/kg). The water was replaced after each animal.
(§2) Data were analyzed using the non-parametric, unadjusted Wilcoxon-Mann-Whitney rank sum test. Each dose was compared with vehicle.

A further series has as its system neonatal C57BL/6 mice. The series can be described thus: Mouse neonatal ultrasonic vocalization test. The format is in vivo. Conditions: s.c., postnatal day 3, 30 min after injection.
Text: as §1
Anxiolytic compounds typically decrease the vocalizations in rat pups separated from their mother (Olivier et al., Eur. J. Pharmacol. 1998, 358, 117) More recently, this test has also been established in mice (Dirks et al., Pharmacol. Biochem. Behav. 2002, 72, 993).
Seventeen days pregnant C57BL/6 mice were obtained from Charles River (Sulzfeld, Germany). They were housed and maintained at a constant temperature of 22° C., under a 12:12 h reversed light/dark cycle (lights off at 6:00 h), with food and water ad libitum. Two times per day, cages were checked for newborn litters. Litter size was 5-8 pups/litter.
Ultrasonic vocalizatiors (USVs) were recorded in a sound attenuating, ventilated chamber at room temperature, detected at 60 kHz (range 50-70 kHz) by a bat recorder in combination with the UltraVox system (Noldus, The Netherlands). No filter was used in order to be able to record pup clicks.
Distress calls of neonatal mice were measured in neonatal C57BL/6 mice at postnatal day 3 during the early dark phase (between 8:00 and 12:00). Pups were weighed (body weight 2-3 g), followed by subcutaneous injection (10 ml/kg), and placed back into the nest. After 30 min, they were separated from the mother and placed into a beaker underneath the bat detector. The number of calls and the duration of calls were recorded over a period of 5 min.
as §2

Series [1] has as its target T1, cloned human δ opioid receptor (Homo sapiens, UniProt P41143).
T1 construct: expressed in transfected cells; host or cells: C6 glioma cells (permanently transfected)
The series can be described thus: Radioligand binding, competitive inhibition of [3H]DPDPE.

Series [2] deals with cloned human μ opioid receptor (Homo sapiens, UniProt P35372). The series can be described thus: Radioligand binding, competition with [3H]DAMGO. The conditions noted are these: Table 8, CHO membranes, read-out: Agonist receptor binding (pIC50) mu (converted).
Sequence of cloned human μ opioid receptor (P35372 whole entry): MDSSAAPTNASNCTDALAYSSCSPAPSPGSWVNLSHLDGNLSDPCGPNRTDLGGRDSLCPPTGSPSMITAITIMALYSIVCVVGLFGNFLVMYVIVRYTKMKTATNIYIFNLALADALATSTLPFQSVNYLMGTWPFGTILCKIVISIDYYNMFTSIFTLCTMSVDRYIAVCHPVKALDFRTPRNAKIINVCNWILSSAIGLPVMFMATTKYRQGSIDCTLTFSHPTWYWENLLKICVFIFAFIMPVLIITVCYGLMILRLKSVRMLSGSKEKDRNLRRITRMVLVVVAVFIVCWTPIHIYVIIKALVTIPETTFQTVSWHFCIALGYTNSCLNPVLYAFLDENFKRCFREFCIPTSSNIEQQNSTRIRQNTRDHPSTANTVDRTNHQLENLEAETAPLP
In series [3] the target is T2, δ opioid receptor (Homo sapiens, UniProt P41143).
T2 construct: expressed in transfected cells; host or cells: C6 glioma cells (permanently transfected)
T2 sequence (P41143 whole entry): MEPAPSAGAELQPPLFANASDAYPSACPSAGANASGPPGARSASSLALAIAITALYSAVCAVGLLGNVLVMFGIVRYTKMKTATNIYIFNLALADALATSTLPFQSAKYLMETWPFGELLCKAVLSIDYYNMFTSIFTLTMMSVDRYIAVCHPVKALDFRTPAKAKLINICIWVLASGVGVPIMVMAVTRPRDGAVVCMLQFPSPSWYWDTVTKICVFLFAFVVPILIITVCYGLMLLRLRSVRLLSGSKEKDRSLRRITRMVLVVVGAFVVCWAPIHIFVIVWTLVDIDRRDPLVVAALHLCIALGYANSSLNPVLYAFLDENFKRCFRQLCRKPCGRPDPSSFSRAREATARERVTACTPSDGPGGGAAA
In words: [35S]GTPγS binding, delta agonism. The class given is biochemical.
Experimental: Second messenger signaling was measured on membrane preparations via stimulation of [^35S]GTPγS binding In this functional assay, agonistic and antagonistic properties of the compounds were investigated.
The assay mixtures contained 10 μg of membrane protein. An additional 10 μg/ml saponire was added to the diluted membranes as a detergent to maximize the [^35S]GTPγS penetration through the membranes.
For testing agonistic activity, 175 μl of diluted membranes was pre-incubated in the buffer described above together with 25 μl of buffer and 25 μl of varying concentrations of the compound in a total volume of 225 μl. For antagonistic activities, the 25 μl of the buffer addition was replaced with the reference agonist for stimulating the basal levels. […]
The amount of bound radioactivity on the filter unit was determined after filter drying and scintillant addition (Nicroscint-O; Packard) by liquid scintillation counting.
Basal [^35S]GTPγS binding was measured in absence of compounds. Stimulation by agonist was calculated as the percentage increase above basal levels. The sigmoid agonist concentration response curves for increases in [^35S]GTPγS binding and antagonist inhibition curves for inhibition of the reference agonist-stimulated [^35S]GTPγS binding were analyzed by non-linear regression using the GraphPad Prism program. […]

The target in series [4] is T2, δ opioid receptor. The series can be described thus: Signal transport binding, delta antagonism. The class given is biochemical.
Where [5] appears, read: Table 7, delta opioid receptor, read-out: pIC50 values for the delta opioid receptor agonist test (converted).

pIC50: −log10 of the molar value. Where two headings read alike, the source gives them in different places. A value given as a limit tells only on which side of the number the result lay.

T1 sequence (P41143 whole entry): as above

With `CCOC(=O)N1CCC(c2ccccc2)(c2nccn2Cc2ccccc2)CC1` [Compound 1, ethyl 4-phenyl-4-[1-(phenylmethyl)-1H-imidazol-2-yl]-1-piperidinecarboxylate], the “Tail suspension LAD (Lowest Active Dose tested)” value (“Tail suspension LAD” below) in the series with NMRI mice came to 30 mg/kg s.c. Also, in the series on C57BL/6 mice, the “Forced swim (LAD) (Lowest Active Dose tested)” value came out at 30 mg/kg s.c. The “Ultrasonic vocalization (LAD) (Lowest Active Dose tested)” value (shortened to “Ultrasonic vocalization (LAD)”) with neonatal C57BL/6 mice came to 10 mg/kg s.c.
As for `O=C(c1ccccc1)N1CCC(c2ccccc2)(c2nccn2Cc2ccccc2)CC1` [Compound 2], the “Tail suspension LAD” value in the series with NMRI mice is reported as 10 mg/kg s.c. Further, the “Ultrasonic vocalization (LAD)” value in the series with neonatal C57BL/6 mice is 1 mg/kg s.c.
`CCOC(=O)N1CCC(c2ccccc2)(c2nccn2Cc2ccc(C(=O)OC)cc2)CC1` [Compound 3] had a melting point of 149.1 °C.
Molecule `CCN/C(=N/C#N)N1CCC(c2ccccc2)(c2nccn2Cc2ccccc2)CC1` [Compound 4] registered a melting point of 84.2 °C. Further, the pIC50 in series [1] is 7.30.
In the case of `COC(=O)c1ccccc1NC(=O)N1CCC(c2ccccc2)(c2nccn2Cc2ccccc2)CC1` [Compound 7], the pIC50 in series [1] was 7.70.
On to `CCOC(=O)N1CCC(c2ccccc2)(c2nccn2Cc2ccc(C(=O)O)cc2)CC1` [Compound 8], for which the melting point amounted to 251.6 °C.
As for `O=C(Nc1ccccc1CO)N1CCC(c2ccccc2)(c2nccn2Cc2ccccc2)CC1` [Compound 10], the IC50 in series [1] (setting [5]) is 63.1 nM.
As to `O=C(O)c1ccccc1NC(=O)N1CCC(c2ccccc2)(c2nccn2Cc2ccccc2)CC1` [Compound 11], the IC50 in series [1] (setting [5]) is 15.8 nM.
With `CCOC(=O)c1ccc(C(C)n2ccnc2C2(c3ccccc3)CCN(C(=O)OCC)CC2)cc1` (centres unmarked) [Compound 19], the pIC50 in series [1] (Agonist receptor binding (pIC50) delta, Table 8, [3H]DPDPE 2 nM, C6 glioma cell membranes) was 8.20. The IC50 was > 1000 nM in series [2] ([3H]DAMGO 1 nM); 316 nM at δ opioid receptor [3] (Table 8, [35S]GTPγS binding, membranes, read-out: Signal transport binding (pIC50) delta agonism GTPγS (converted)); > 10000 nM on δ opioid receptor [4] (Table 8, against reference agonist DPDPE, read-out: Signal transport binding (pIC50) delta antag. (converted)).
Take `CCOC(=O)N1CCC(c2ccccc2)(c2nccn2C(C)c2ccccc2)CC1` (centres unmarked) [Compound 20]: the “Tail suspension LAD” value in the series with NMRI mice amounted to 30 mg/kg s.c. Further, the “Ultrasonic vocalization (LAD)” value with neonatal C57BL/6 mice was 30 mg/kg s.c.
`CCOC(=O)N1CCC(c2ccccc2)(c2nccn2Cc2ccc3ccccc3c2)CC1` [Compound 22]: the IC50 in series [1] (setting [5]) is 50.1 nM.
The molecule `O=C(OC1CCCCC1)N1CCC(c2ccccc2)(c2nccn2Cc2ccccc2)CC1` [Compound 28] had a pIC50 in series [1] of 7.80.
Same read-out and setting: under `O=C(C1CC1)N1CCC(c2ccccc2)(c2nccn2Cc2ccccc2)CC1` [Compound 36] stands 7.30.
In the case of `O=C(c1cc(C(F)(F)F)cc(C(F)(F)F)c1)N1CCC(c2ccccc2)(c2nccn2Cc2ccccc2)CC1` [Compound 42], in series [1] (setting [5]), the IC50 was 63.1 nM.
In series [1], `CCOC(=O)CNC(=O)N1CCC(c2ccccc2)(c2nccn2Cc2ccccc2)CC1` [Compound 48] showed a pIC50 of 7.10.
Still for that read-out and setting: under `CCCCNC(=O)N1CCC(c2ccccc2)(c2nccn2Cc2ccccc2)CC1` [Compound 50] stands 7.60.
`O=C(NC1CCCCC1)N1CCC(c2ccccc2)(c2nccn2Cc2ccccc2)CC1` [Compound 51] showed a pIC50 in series [1] of 7.30.
Take `COC(=O)c1ccc(Cn2ccnc2C2(c3ccccc3)CCN(C(=O)Nc3ccccc3)CC2)cc1` [Compound 52]: the IC50 in series [1] (setting [5]) is 20 nM.
Regarding `O=C(Nc1ccccc1Cl)N1CCC(c2ccccc2)(c2nccn2Cc2ccccc2)CC1` [Compound 65], the IC50 in series [1] (setting [5]) is 31.6 nM.
For the molecule `O=C(Nc1ccccc1Br)N1CCC(c2ccccc2)(c2nccn2Cc2ccccc2)CC1` [Compound 66], in series [1], the pIC50 is 7.50.
With `CCOc1ccccc1NC(=O)N1CCC(c2ccccc2)(c2nccn2Cc2ccccc2)CC1` [Compound 70], the negative-log IC50 (pIC50) in series [1] was 7.40.
In the case of `O=C(Nc1ccc([N+](=O)[O-])cc1)N1CCC(c2ccccc2)(c2nccn2Cc2ccccc2)CC1` [Compound 71], the pIC50 in series [1] was 7.30.
Same read-out and setting: under `O=C(Nc1ccccc1Oc1ccccc1)N1CCC(c2ccccc2)(c2nccn2Cc2ccccc2)CC1` [Compound 75] stands 7.40; under `CSc1ccccc1NC(=O)N1CCC(c2ccccc2)(c2nccn2Cc2ccccc2)CC1` [Compound 76], 7.40.
With `COc1ccc(Cl)cc1NC(=O)N1CCC(c2ccccc2)(c2nccn2Cc2ccccc2)CC1` [Compound 78], the IC50 in series [1] (setting [5]) was 12.6 nM.
In series [1], `O=C(NCc1ccccc1)N1CCC(c2ccccc2)(c2nccn2Cc2ccccc2)CC1` [Compound 80] had a pIC50 of 7.10.
On the same count and under the same terms, to `O=C(Nc1ccc2ccccc2c1)N1CCC(c2ccccc2)(c2nccn2Cc2ccccc2)CC1` [Compound 81] belongs 7.20.
As for `O=C(c1csc(-c2cccnc2)n1)N1CCC(c2ccccc2)(c2nccn2Cc2ccccc2)CC1` [Compound 84], the IC50 in series [1] (setting [5]) is 31.6 nM.
For `O=C(Nc1ccccn1)N1CCC(c2ccccc2)(c2nccn2Cc2ccccc2)CC1` [Compound 87], the pIC50 in series [1] is 7.30.
As to `O=S(=O)(Nc1ccccc1)N1CCC(c2ccccc2)(c2nccn2Cc2ccccc2)CC1` [Compound 98], the pIC50 in series [1] was 8.20; on δ opioid receptor [3], 6.10; at δ opioid receptor [4], < 5.00. Moreover, the IC50 in series [2] ([[…] 1 nM) is 2510 nM.
The molecule `CCN(CC)C(=O)c1ccc(Cn2ccnc2C2(c3ccccc3)CCN(c3nc4ccccc4o3)CC2)cc1` [Compound 99] had a pIC50 in series [1] of 7.30.
On the same count and under the same terms, under `CC(c1ccccc1)n1ccnc1C1(c2ccccc2)CCN(c2nc3ccccc3o2)CC1` (centres unmarked) [Compound 101] stands 7.80.
For the molecule `COC(=O)c1ccc(Cn2ccnc2C2(c3ccccc3)CCN(c3nc4ccccc4s3)CC2)cc1` [Compound 102], the IC50 in series [1] (Table 8, [3H]DPDPE 2 nM, C6 glioma cell membranes, read-out: Agonist receptor binding (pIC50) delta (converted)) was 3.16 nM; in series [2] ([3H]DAMGO 1 nM) it was > 1000 nM.
The molecule `c1ccc(Cn2ccnc2C2(c3ccccc3)CCN(c3ncccn3)CC2)cc1` [Compound 103] gave a negative-log IC50 (pIC50) in series [1] of 7.70.
The molecule `c1ccc(Cn2ccnc2C2(c3ccccc3)CCN(c3nccs3)CC2)cc1` [Compound 105] had a pIC50 in series [1] of 7.90.

For the origin of these results see patent US20060287345A1, “Substituted 4-phenyl-4-[1h-imidazol-2-yl]-piperidine derivatives as selective non-peptide delta opiod agonists with antidepressant and anxiolytic activity” (priority 2003, published 2006).
